Measurements as given in US20080312209A1, “Piperazine Heteroaryl Derivatives as Gpr38 Agonists” (Glaxo Group Limited, priority 2005, published 2008).

What was measured:
hGPR38R [1] = target: T1, hGPR38R (Homo sapiens, UniProt O43193); experiment: GPR38 FLIPR functional agonist assay; assay type: cell-based; set-up: expressed in transfected cells; conditions: HEK-293 cells stably expressing the GPR38 receptor, agonist response, Fluo-4 fluorescence
Description: The potencies and efficacies of the compounds of this invention for GPR^38 can be determined by FLIPR assay performed on the human cloned receptor as described herein. It has been found, using the FLIPR functional assay, that compounds of formula (I) appear to be partial or full agonists of the GPR38 receptor.
GPR38FLIPR Functional Agonist Assay Protocol
HEK-293 cells stably expressing the GPR38 receptor were seeded (10,000 cells/well) into poly-D-lysine coated 384-well black-wall, clear-bottom microtitre plates (Becton Dickinson) 24 h prior to assay. On day of assay, cells were washed (×2) with 80 ul of assay buffer (Hanks Balanced Salts Solution (HBSS), 10 mM HEPES, 200 μM Ca^2+, 2.5 mM probenecid) using the EMBLA cell washer. After the final wash, buffer was aspirated to leave a residual volume of 30 ul on the cells. Cells were loaded with 1 μM (final) Fluo-4-AM fluorescent indicator dye (TefLabs) in assay buffer, (20 ul loading solution added to each well using the Multidrop). Plates were incubated for 1 h at 37° C., before being washed (×3) with 80 ul assay buffer using the EMBLA cell washer; 30 ul residual being left after the final wash. Plates were then assayed on a Fluorometric Imaging Plate Reader (FLIPR, Molecular Devices). Test compounds were prepared in assay buffer without probenecid, but containing 0.03% CHAPS. In the FLIPR, 10 ul of test compound was added to the cells and changes in fluorescence measured over a 2 min timeframe. Maximum change in fluorescence over baseline was used to determine agonist response and concentration response curves were constructed, using a 4-parameter logistic equation.
(§1) The following alternative procedure may also be used:
HEK-293 cells stably expressing the GPR38 receptor were seeded (30,000 cells/100 ul growth media/well) into poly-D-lysine coated 96-well black-wall, clear-bottom microtitre plates (Corning) 24 hours prior to assay. On the day of assay the cells were loaded with 2 μM (final) Fluo-4-AM fluorescent indicator dye (Molecular Probes) and 1 mM (final) probenicid in assay buffer (145 mM sodium chloride, 2.5 mM potassium chloride, 10 mM Hepes, 10 mM glucose, 1.2 mM magnesium chloride, 1.5 mM calcium chloride and 0.1% BSA) (50 ul loading solution added to each well). Plates were incubated for 1 hour at 25° C., before being washed 4 times with 100 ul assay buffer using the EMBLA cell washer; 150 ul residual being left after the final wash. The cells were then incubated at 25° C. for 20 minutes and the plates were then assayed on a Fluorometric Imaging Plate Reader (FLIPR, Molecular Devices). Test compounds were prepared in assay buffer without probenecid. In the FLIPR, 50 ul of test compound was added to the cells and changes in fluorescence measured over a 2 minute timeframe. Maximum change in fluorescence over baseline was used to determine agonist response and concentration response curves were constructed, using a 4-parameter logistic equation.
Target sequence in this assay (O43193 whole entry): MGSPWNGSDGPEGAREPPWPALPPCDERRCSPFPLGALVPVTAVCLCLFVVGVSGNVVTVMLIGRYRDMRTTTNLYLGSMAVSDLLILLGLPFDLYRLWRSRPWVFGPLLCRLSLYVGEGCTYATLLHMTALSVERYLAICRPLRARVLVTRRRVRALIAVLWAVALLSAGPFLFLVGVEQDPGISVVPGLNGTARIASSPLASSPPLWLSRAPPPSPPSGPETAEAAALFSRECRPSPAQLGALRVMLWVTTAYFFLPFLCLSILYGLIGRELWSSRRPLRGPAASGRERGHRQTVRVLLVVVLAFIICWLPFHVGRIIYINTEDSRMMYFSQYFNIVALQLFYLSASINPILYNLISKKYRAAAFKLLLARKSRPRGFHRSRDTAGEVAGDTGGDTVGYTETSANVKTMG

hGPR38R [2] = target: T1, hGPR38R; experiment: GPR38 GTPγS functional agonist assay; assay type: biochemical; set-up: expressed in transfected cells; host or cells: HEK293 (transient transfection; P2 membrane fractions)
Description: The potencies and intrinsic activities of the compounds of this invention can also be determined according to the [35S]GTPγS functional assay which is described herein. It has been found, using the [35S]GTPγS functional assay, that compounds of formula (I) appear to be partial or full agonists of the GPR38 receptor.
GPR38GTPγS Functional Agonist Assay Protocol
For each compound being assayed, in an Opti clear bottom 96 well plate, is added:—
(a) 20 μl of test compound (or 10 μl of guanosine 5′-triphosphate (GTP) as non-specific binding control) diluted to required concentration in assay buffer (20 mM N-2-Hydroxyethylpiperazine-N′-2-ethanesulfonic acid (HEPES)+100 mM NaCl+10 mM MgCl2, pH adjusted to 7.4 with NaOH); (b) 60 μl bead/membrane/GDP mix prepared by suspending wheat germ agglutinin-polyvinyltoluene (WGA-PVT) scintillation proximity assay (SPA) beads at 100 mg/ml in assay buffer followed by mixing with membrane (prepared in accordance with the methodology described above) and diluting in assay buffer to give a final volume of 60 μl which contains 10 μg protein and 0.5 mg bead per well—mixture is pre-mixed at 4° C. for 30 min on a roller and just prior to addition to the plate, 10 μM final concentration of guanosine 5′ diphosphate (GDP—diluted in assay buffer) is added; (c) 20 μl guanosine 5′ [γ35-S]thiotriphosphate, triethylamine salt (Amersham; radioactivity concentration=37 kBq/μl or 1 mCi/ml; Specific Activity 1160 Ci/mmol) diluted to 1.9 nM in assay buffer to give 0.38 nM final.
The plate is incubated on a shaker at 25° C. for 30 min followed by centrifugation for 5 min at 1500 rpm. The plate is read between 3 and 6 h after completion of centrifuge run in a Wallac Microbeta counter on a 1 min normalised tritium count protocol. Data is analysed using a 4-parameter logistic equation. Basal activity used as minimum.
as §1
Target sequence in this assay (O43193 whole entry): as above
Target sequence in this assay (P09471 2-354 partner limits assumed): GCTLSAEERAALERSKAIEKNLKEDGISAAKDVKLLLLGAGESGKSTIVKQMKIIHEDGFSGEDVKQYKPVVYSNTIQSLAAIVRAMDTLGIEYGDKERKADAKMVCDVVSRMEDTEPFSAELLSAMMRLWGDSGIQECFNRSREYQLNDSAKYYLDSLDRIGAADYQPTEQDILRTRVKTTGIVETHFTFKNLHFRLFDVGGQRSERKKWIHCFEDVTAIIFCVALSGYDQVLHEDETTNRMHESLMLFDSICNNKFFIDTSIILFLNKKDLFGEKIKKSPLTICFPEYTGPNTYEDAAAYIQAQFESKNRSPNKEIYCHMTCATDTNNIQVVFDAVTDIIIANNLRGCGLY
Target sequence in this assay (P62873 2-340 partner limits assumed): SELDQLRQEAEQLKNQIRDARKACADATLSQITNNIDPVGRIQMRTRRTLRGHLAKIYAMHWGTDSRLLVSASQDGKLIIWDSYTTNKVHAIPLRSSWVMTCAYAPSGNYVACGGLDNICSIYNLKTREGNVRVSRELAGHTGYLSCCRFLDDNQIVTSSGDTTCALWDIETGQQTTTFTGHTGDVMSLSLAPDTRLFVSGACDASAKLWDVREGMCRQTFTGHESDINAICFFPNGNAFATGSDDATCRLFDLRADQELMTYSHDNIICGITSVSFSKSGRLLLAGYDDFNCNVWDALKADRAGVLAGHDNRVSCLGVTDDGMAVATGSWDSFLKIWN
Target sequence in this assay (P59768 2-68 partner limits assumed): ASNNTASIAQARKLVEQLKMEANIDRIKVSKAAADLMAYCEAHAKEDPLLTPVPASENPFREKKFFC
Membranes are derived from bulk cell cultures of HEK293 cell lines transiently transfected with hGPR38R and Go G-protein. P2 membranes fractions are prepared, aliquoted and stored at −80° C.
For each compound being assayed, the following is added into a white Greiner 384 well plate:—
(a) 1 μl of test compound diluted to required concentration in DMSO. (b) 20 μl bead/membrane/Saponin/GDP mix prepared as follows;—suspension of LEADseeker wheat germ agglutinin (WGA) scintillation proximity assay (SPA) beads at 25 mg/ml in assay buffer (20 mM N-2-Hydroxyethylpiperazine-N′-2-ethanesulfonic acid (HEPES)+100 mM NaCl+10 mM MgCl2, pH adjusted to 7.4 with KOH) containing saponin at 150 ug/ml. Mixing of bead suspension with membranes at 500 ug/ml (prepared in accordance with the methodology described above) and diluting in assay buffer to give a final volume of 20 μl which contains 5 μg protein and 0.25 mg bead per well.
Mixture is pre-mixed for 30 minutes on a roller and just prior to addition to the plate, 3 μM final assay concentration of guanosine 5′ diphosphate (GDP) (diluted in assay buffer) is added.
(c) 25 μl guanosine 5′ [γ35-S]thiotriphosphate, triethylamine salt (Amersham; radioactivity concentration=37 kBq/μl or 1 mCi/ml; Specific Activity 1160 Ci/mmol) diluted to 0.6 nM in assay buffer to give 0.33 nM final assay concentration.
The plate is then spun for 2 minutes at 1500 rpm and then incubated at room temperature for 4 hours. The plate is then read on a Viewlux Plux (Perkin Elmer). Data is analysed using a 4-parameter logistic equation.

[3] = read-out: pEC50 in the FLIPR assay (converted)
[4] = [35S]GTPγS SPA, HEK293 membranes with hGPR38R and Go G-protein, read-out: pEC50 in the GTPγS assay (converted)

How did the EC50 (hGPR38R [1]; pEC50 in the FLIPR assay) turn out when `C[C@@H]1CN(Cc2ccc(-c3cccnc3C(=O)N3CCC(Nc4ccc(F)c(F)c4)CC3)cc2F)C[C@H](C)N1` [Example 12, N-(3,4-difluorophenyl)-1-{[3-(4-{[(3R,5S)-3,5-dimethyl-1-piperazinyl]methyl}-3-fluorophenyl)-2-pyridinyl]carbonyl}-4-piperidinamine] was run?
The EC50 was under 0.316 µM.

And the EC50 (hGPR38R [2])?
The EC50 was under 3.16 µM.

With `C[C@@H]1CN(Cc2ccc(-c3cccnc3C(=O)N3CCC(Oc4cccc(F)c4)CC3)cc2)C[C@H](C)N1` [Example 34, (3R,5S)-1-({4-[2-({4-[(3-fluorophenyl)oxy]-1-piperidinyl}carbonyl)-3-pyridinyl]phenyl}methyl)-3,5-dimethylpiperazine] as the compound, how does the EC50 (hGPR38R [1]; [3]) read?
The EC50 was under 0.316 µM.

And the EC50 (hGPR38R [2]; [4])?
The EC50 was under 3.16 µM.

Which results are given for `C[C@@H]1CN(Cc2ccc(-c3cccnc3C(=O)N3CCC(Nc4ccc(F)cc4)CC3)cc2)C[C@H](C)N1` [Example 2, (3R,5S)-3,5-Dimethyl-1-({4-[2-({4-[(4-fluorophenyl)amino]piperidin-1-yl}carbonyl)pyridin-3-yl]phenyl}methyl)piperazine]?
EC50 (hGPR38R [1]; pEC50 in the FLIPR assay): < 0.316 µM; EC50 (hGPR38R [2]): < 3.16 µM

For `C[C@@H]1CN(Cc2ccc(-c3cccnc3C(=O)N3CC[C@H](Oc4ccc(F)cc4)C3)cc2)C[C@H](C)N1` [Example 18, (3R,5S)-1-({4[2-({(3S)-3-[(4-fluorophenyl)oxy]-1-pyrrolidinyl}carbonyl)-3-pyridinyl]phenyl}methyl)-3,5-dimethylpiperazine], which EC50 (hGPR38R [1]; [3]) is on record?
Its EC50 is under 0.316 µM.

What about the EC50 (hGPR38R [2]; [4]) of the same compound?
The EC50 was under 3.16 µM.

`C[C@@H]1CN(Cc2ccc(-n3ccnc3C(=O)N3CCC(Nc4ccccc4F)CC3)cc2)C[C@H](C)N1` [Example 23, 1-{[1-(4-{[(3R,5S)-3,5-dimethyl-1-piperazinyl]methyl}phenyl)-1H-imidazol-2-yl]carbonyl}-N-(2-fluorophenyl)-4-piperidinamine] was tested. Which EC50 (hGPR38R [2]) did it give?
The EC50 was under 3.16 µM.

`C[C@@H]1CN(Cc2ccc(-n3ccnc3C(=O)N3CCC(Nc4ccc(F)cc4)CC3)cc2)C[C@H](C)N1` [Example 22, 1 {[1-(4-{[(3R,5S)-3,5-Dimethyl-1-piperazinyl]methyl}phenyl)-1H-imidazol-2-yl]carbonyl}-N-(4-fluorophenyl)-4-piperidinamine] was tested. Which EC50 (hGPR38R [1]; pEC50 in the FLIPR assay) did it give?
The EC50 was under 0.316 µM.

And the EC50 (hGPR38R [2])?
Its EC50 is under 3.16 µM.

With `Cc1nc(C(=O)N2CCC(Nc3ccc(F)cc3)CC2)c(-c2ccc(CN3C[C@@H](C)N[C@@H](C)C3)cc2)s1` [Example 5] as the compound, how does the EC50 (hGPR38R [2]) read?
Its EC50 is under 3.16 µM.

Which results are given for `C[C@@H]1CN(Cc2ccc(-c3cccnc3S(=O)(=O)N3CCC(Nc4ccccc4F)CC3)cc2F)C[C@H](C)N1` [Example 20, 1-{[3-(4-{[(3R,5S)-3,5-Dimethyl-1-piperazinyl]methyl}-3-fluorophenyl)-2-pyridinyl]sulfonyl}-N-(2-fluorophenyl)-4-piperidinamine]?
EC50 (hGPR38R [1]; [3]): < 1 µM; EC50 (hGPR38R [2]; [4]): < 3.16 µM

What does the source list for `C[C@@H]1CN(Cc2ccc(-c3cccnc3C(=O)N3CCC(Cc4ccc(F)cc4)CC3)cc2)C[C@H](C)N1` [Example 1, (3R,5S)-3,5-Dimethyl-1-({4-[2-({4-[(4-Fluorophenyl)methyl]piperidin-1-yl}carbonyl)pyridin-3-yl]phenyl}methyl)piperazine]?
EC50 (hGPR38R [1]; [3]): < 0.316 µM; EC50 (hGPR38R [2]; [4]): < 3.16 µM

With `C[C@@H]1CN(Cc2ccc(-c3cccnc3C(=O)N3CCC(Nc4cc(F)cc(F)c4)CC3)cc2F)C[C@H](C)N1` [Example 27, N-(3,5-difluorophenyl)-1-{[3-(4-{[(3R,5S)-3,5-dimethyl-1-piperazinyl]methyl}-3-fluorophenyl)-2-pyridinyl]carbonyl}-4-piperidinamine] as the compound, how does the EC50 (hGPR38R [2]) read?
The EC50 was under 3.16 µM.

For `C[C@@H]1CN(Cc2ccc(-n3ccnc3C(=O)N3CCC(Nc4ccc(F)cc4)CC3)cc2F)C[C@H](C)N1` [Example 24, 1-{[1-(4-{[(3R,5S)-3,5-dimethyl-1-piperazinyl]methyl}-3-fluorophenyl)-1H-imidazol-2-yl]carbonyl}-N-(4-fluorophenyl)-4-piperidinamine], which EC50 (hGPR38R [2]) is on record?
Its EC50 is under 3.16 µM.

How did the EC50 (hGPR38R [2]) turn out when `C[C@@H]1CN(Cc2ccc(-n3ccnc3C(=O)N3CCC(Nc4cccc(F)c4)CC3)cc2F)C[C@H](C)N1` [Example 25, 1-{[1-(4-{[(3R,5S)-3,5-dimethyl-1-piperazinyl]methyl}-3-fluorophenyl)-1H-imidazol-2-yl]carbonyl}-N-(3-fluorophenyl)-4-piperidinamine] was run?
Its EC50 is under 3.16 µM.

`C[C@@H]1CN(Cc2ccc(-c3cccnc3C(=O)N3CCC(Nc4cccc(C#N)c4)CC3)cc2F)C[C@H](C)N1` [Example 30, 3-[(1-{[3-(4-{[(3R,5S)-3,5-dimethyl-1-piperazinyl]methyl}-3-fluorophenyl)-2-pyridinyl]car-bonyl}-4-piperidinyl)amino]benzonitrile] was tested. Which EC50 (hGPR38R [2]; [4]) did it give?
The EC50 was under 3.16 µM.

Which EC50 (hGPR38R [2]; [4]) does the source give for `Cc1nc(C(=O)N2CCC(Cc3ccc(F)cc3)CC2)c(-c2ccc(CN3C[C@@H](C)N[C@@H](C)C3)cc2)s1` [Example 4, (3R,5S)-3,5-Dimethyl-1-({4-[4-({4-[(4-fluorophenyl)methyl]piperidin-1-yl}carbonyl)-2-methyl-1,3-thiazol-5-yl]phenyl}methyl)piperazine] here?
Its EC50 is under 3.16 µM.

With `C[C@@H]1CN(Cc2ccc(-c3cccnc3C(=O)N3CCC(Oc4cccc(F)c4)CC3)cc2F)C[C@H](C)N1` [Example 35, (3R,5S)-1-({2-fluoro-4-[2-({4-[(3-fluorophenyl)oxy]-1-piperidinyl}carbonyl)-3-pyridinyl]phenyl}methyl)-3,5-dimethylpiperazine] as the compound, how does the EC50 (hGPR38R [1]; [3]) read?
The EC50 was under 0.316 µM.

`Cc1nc(CN(C)C(=O)COc2ccc(F)cc2)c(-c2ccc(CN3C[C@@H](C)N[C@@H](C)C3)cc2)s1` [Example 7, N-{[5-(4-{[(3R,5S)-3,5-dimethyl-1-piperazinyl]methyl}phenyl)-2-methyl-1,3-thiazol-4-yl]methyl}-2-[(4-fluorophenyl)oxy]-N-methylacetamide] was tested. Which EC50 (hGPR38R [2]; [4]) did it give?
The EC50 was under 3.16 µM.
